Patent US7060725B2, “Substituted sulfamate anticonvulsant derivatives” (Janssen Pharmaceutica N.V., priority 2002, dated 2006)

Columns and labels:
[1] = system: maximal electroshock seizure (MES-induced seizure spread); assay: Maximal electroshock seizure (MES) test, mouse; type: in vivo, mice
Procedure: Anticonvulsant activity was determined using the standard MES model for generalized tonic-clonic seizures (Swinyard E A, Woodhead J H, White H S, Franklin M R, In: Levy R H, Mattson R H, Meldrum B S, Penry J K, Dreifuss F E eds. Antiepileptic drugs. New York: Raven Press, 1989:85–102).
An electric stimulus of 0.2 sec duration, 60 Hz, 50 mA in mice, 150 mA in rats, was delivered via corneal electrodes primed with an electrolyte solution containing an anesthetic agent (0.5% tetracaine hydrochloride in 0.9% saline).
Mice or rats were randomly selected into control and test groups. The animals were dosed with vehicle or test compound, at varying concentrations. […] Rats were subjected to electrical stimulus at time intervals between 15 minutes and 4 hours following administration of test compound. Abolition of the hind limb tonic extensor component was an indication of the test compound's ability to inhibit MES-induced seizure spread.
The ED50 (the calculated dose required to block the hindlimb tonic-extensor component of the maximal electroshock seizure in 50% of the animals tested) was calculated. A probit analysis (Finney D J. Probit Analysis. Cambridge, England: Cambridge University Press, 1971) was used to calculate the ED50.
Following the mouse procedure described above, representative compounds of the instant invention were tested for biological activity in the mouse, with results as listed in Table 5. Mouse activity is listed as number of mice active/total number of mice tested @ time after administration of the test compound.

[2] = system: maximal electroshock seizure (MES-induced seizure spread); assay: Maximal electroshock seizure (MES) test, rat; type: in vivo, rats
Procedure: Anticonvulsant activity was determined using the standard MES model for generalized tonic-clonic seizures (Swinyard E A, Woodhead J H, White H S, Franklin M R, In: […], Meldrum […], Dreifuss F E eds. Antiepileptic drugs. New York: Raven Press, 1989:85-102). An electric stimulus of 0.2 sec duration, 60 Hz, 50 mA in mice, 150 mA in rats, was delivered via corneal electrodes primed with an electrolyte solution containing an anesthetic agent (0.5% tetracaine hydrochloride in 0.9% saline). Mice or rats were randomly selected into control and test groups. The animals were dosed with vehicle or test compound, at varying concentrations. Mice were subjected to the electrical stimulus at 30 minutes and 4 hours following administration of test compound. […] Abolition of the hind limb tonic extensor component was an indication of the test compound's ability to inhibit MES-induced seizure spread. […] A probit analysis (Finney D J. Probit Analysis. Cambridge, England: Cambridge University Press, 1971) was used to calculate the ED50. Following the rat procedure described above, representative compounds of the instant invention were tested for biological activity in the rat, with results as listed in Table 6 and 7. Rat activity is listed as number of rats active/total number of rats tested @ time after administration of the test compound.

[3] = 300 mg/kg, @ 0.5 hrs after administration
[4] = 100 mg/kg, @ 0.5 hrs after administration
[5] = 100 mg/kg, @ 4 hrs after administration
[6] = 300 mg/kg, @ 4 hrs after administration
[7] = 100 mg/kg, @ 1 hr after administration

Row | Compound | Mouse Activity (number of mice active/total number of mice tested) [1, 3] | ED50 ([2]; @ 4 hrs) | Rat Activity (oral) (number of rats active/total number of rats tested) ([2]; 30 mg/kg, @ 0.5 hrs) | Rat Activity (oral) (number of rats active/total number of rats tested) ([2]; 30 mg/kg, @ 1 hr) | Rat Activity (oral) (number of rats active/total number of rats tested) ([2]; 30 mg/kg, @ 2 hrs) | Rat Activity (oral) (number of rats active/total number of rats tested) ([2]; 30 mg/kg, @ 4 hrs) | Mouse Activity (number of mice active/total number of mice tested) [1, 6] | Mouse Activity ([1]; dosage 30 mg/kg) | further results
1 | COC(=O)CCCNS(=O)(=O)OCC12OCC3OC(C)(C)OC3C1OC(C)(C)O2 (centres unmarked) [Compound 8] | 1/1 @ 0.5 hrs |  |  |  |  |  |  |  | Mouse Activity ([1]; dosage 30, 100 mg/kg): No activity
2 | CC1(C)OC2[C@@H](CO[C@@]3(COS(=O)(=O)NS(=O)(=O)C(F)(F)F)OC(C)(C)O[C@@H]23)O1 (stereo partly drawn) [Compound 30, N-trifluoromethylsulfonyl-2,3:4,5-bis-O-(1-methylethylidene)-β-D-fructopyranose sulfamate] | 1/1 @ 0.5 hrs | 2.38 @ 4 hrs m/k | 4/4 @ 0.5 hrs | 3/4 @ 1 hr | 4/4 @ 2 hrs | 4/4 @ 4 hrs | 1/1 @ 4 hrs | No activity | Rat Activity (oral) (number of rats active/total number of rats tested) ([2]; 30 mg/kg, @ 0.25 hrs): 3/4 @ 0.25 hrs; Mouse Activity (number of mice active/total number of mice tested) [1, 4]: 2/3 @ 0.5 hrs; Mouse Activity (number of mice active/total number of mice tested) [1, 5]: 3/3 @ 4 hrs
3 | CONS(=O)(=O)OCC12OCC3OC(C)(C)OC3C1OC(C)(C)O2 (centres unmarked) [Compound 10] | 1/1 @ 0.5 hrs |  |  |  |  |  | 1/1 @ 4 hrs |  | Mouse Activity ([1]; dosage 30, 100 mg/kg): No activity
4 | CC1(C)OC2COC3(COS(=O)(=O)N[Si](c4ccccc4)(c4ccccc4)c4ccccc4)OC(C)(C)OC3C2O1 (centres unmarked) [Compound 6] |  |  |  |  |  |  |  |  | Mouse Activity ([1]; dosage 30, 100, 300 mg/kg): No activity
5 | CN(O)S(=O)(=O)OCC12OCC3OC(C)(C)OC3C1OC(C)(C)O2 (centres unmarked) [Compound 12] |  |  |  |  |  |  |  |  | Rat Activity (oral) (number of rats active/total number of rats tested) ([2]; 15 mg/kg, @ 1 hr): 1/4 @ 1 hr; Mouse Activity ([1]; dosage 30, 100, 300 mg/kg): No activity
6 | CC1(C)OC2[C@@H](CO[C@@]3(COS(=O)(=O)NO)OC(C)(C)O[C@@H]23)O1 (stereo partly drawn) [Compound 9, N-hydroxy-2,3:4,5-bis-O-(1-methylethylidene)-β-D-fructopyranose sulfamate] |  | 68.72 @ 4 hrs m/k |  | 1/4 @ 1 hr | 2/4 @ 2 hrs | 1/4 @ 4 hrs | 1/1 @ 4 hrs | No activity | 
7 | CC1(C)OC2COC3(COS(=O)(=O)NC(c4ccccc4)c4ccccc4)OC(C)(C)OC3C2O1 (centres unmarked) [Compound 37] |  |  |  | 1/4 @ 1 hr | 2/4 @ 2 hrs | 1/4 @ 4 hrs |  | No Activity | Mouse Activity (number of mice active/total number of mice tested) [1, 4]: 0/3 @ ½ hr,; Mouse Activity (number of mice active/total number of mice tested) [1, 7]: 0/3 @ ½ hr,; Mouse Activity (number of mice active/total number of mice tested) ([1]; 100 mg/kg, @ 2 hrs after administration): 1/3 @ ¼ hrs,; Mouse Activity (number of mice active/total number of mice tested) ([1]; 100 mg/kg, @ 6 hrs after administration): 1/3 @ ¼ hrs,; Mouse Activity (number of mice active/total number of mice tested) ([1]; 100 mg/kg, @ ¼ hrs after administration): 1/3 @ ¼ hrs,; Mouse Activity ([1]; dosage 300 mg/kg): No activity
8 | CC(C)Oc1ccccc1N1CCN(S(=O)(=O)OCC23OCC4OC(C)(C)OC4C2OC(C)(C)O3)CC1 (centres unmarked) [Compound 39] |  |  |  |  |  | 1/4 @ 4 hrs |  |  | Mouse Activity ([1]; dosage 30, 100, 300 mg/kg): No activity
9 | CC(=O)[N-]S(=O)(=O)OC[C@@]12OC[C@H]3OC(C)(C)OC3[C@@H]1OC(C)(C)O2.[Na+] (stereo partly drawn) [Compound 18, N-acetyl-2,3:4,5-bis-O-(1-methylethylidene)-β-D-fructopyranose sulfamate sodium salt] | 1/1 @ 0.5 hrs |  | 1/4 @ 0.5 hrs |  | 1/4 @ 2 hrs | 3/4 @ 4 hrs | 1/1 @ 4 hrs | No activity | Rat Activity (oral) (number of rats active/total number of rats tested) ([2]; 30 mg/kg, @ 0.25 hrs): 1/4 @ 0.25 hrs; Mouse Activity (number of mice active/total number of mice tested) [1, 4]: 1/3 @ 0.5 hrs; Mouse Activity (number of mice active/total number of mice tested) [1, 5]: 2/3 @ 4 hrs
10 | CC1(C)OC2[C@@H](CO[C@@]3(COS(=O)(=O)NC(=O)OCc4ccccc4)OC(C)(C)O[C@@H]23)O1 (stereo partly drawn) [Compound 15, N-benzyloxycarbonyl-2,3:4,5-bis-O-(1-methylethylidene)-β-D-fructopyranose sulfamate] | 1/1 @ 0.5 hrs |  |  |  |  |  | 1/1 @ 4 hrs | No activity | Mouse Activity (number of mice active/total number of mice tested) [1, 7]: 3/3 @ 1 hr; Mouse Activity (number of mice active/total number of mice tested) [1, 5]: 2/3 @ 4 hrs
11 | CON(C)S(=O)(=O)OCC12OCC3OC(C)(C)OC3C1OC(C)(C)O2 (centres unmarked) [Compound 11] |  | 26.75 @ 4 hrs m/k | 2/3 @ 0.5 hrs |  | 2/3 @ 2 hrs | 2/3 @ 4 hrs |  |  | Mouse Activity ([1]; dosage 30, 100, 300 mg/kg): No activity
12 | CCC(=O)[N-]S(=O)(=O)OCC12OCC3OC(C)(C)OC3C1OC(C)(C)O2.[Na+] (centres unmarked) [Compound 19] | 1/1 @ 0.5 hrs | 11.22 @ 4 hrs m/k | 0/4 @ 0.5 hrs | 1/4 @ 1 hr | 4/4 @ 2 hrs | 4/4 @ 4 hrs | 1/1 @ 4 hrs | No activity | Rat Activity (oral) (number of rats active/total number of rats tested) ([2]; 30 mg/kg, @ 0.25 hrs): 1/4 @ 0.25 hrs; Mouse Activity (number of mice active/total number of mice tested) [1, 4]: 0/3 @ 0.5 hrs; Mouse Activity (number of mice active/total number of mice tested) [1, 5]: 3/3 @ 4 hrs
13 | CC1(C)OC2COC3(COS(=O)(=O)NCCC(=O)O)OC(C)(C)OC3C2O1 (centres unmarked) [Compound 35] | 1/1 @ 0.5 hrs |  |  |  |  |  |  |  | Mouse Activity ([1]; dosage 30, 100 mg/kg): No Activity
14 | C=CCNS(=O)(=O)OC[C@@]12OC[C@H]3OC(C)(C)OC3[C@@H]1OC(C)(C)O2 (stereo partly drawn) [Compound 2, N-allyl-2,3:4,5-bis-O-(1-methylethylidene)-β-D-fructopyranose sulfamate] |  |  |  |  |  |  |  |  | ED50 ([2]; @ 2 hrs): 11.89 @ 2 hrs m/k; Rat Activity (oral) (number of rats active/total number of rats tested) ([2]; 8 mg/kg, @ 2 hrs): 3/4 @ 2 hrs; Rat Activity (oral) (number of rats active/total number of rats tested) ([2]; 8 mg/kg, @ 4 hrs): 2/4 @ 4 hrs; Rat Activity (oral) (number of rats active/total number of rats tested) ([2]; 8 mg/kg, @ 6 hrs): 1/4 @ 6 hrs; Rat Activity (oral) (number of rats active/total number of rats tested) ([2]; 8 mg/kg, @ 8 hrs): 1/4 @ 8 hrs; Rat Activity (oral) (number of rats active/total number of rats tested) ([2]; 20 mg/kg, @ 0.5 hrs): 1/4 @ 0.5 hrs; Rat Activity (oral) (number of rats active/total number of rats tested) ([2]; 20 mg/kg, @ 2 hrs): 2/2 @ 2 hrs; Rat Activity (oral) (number of rats active/total number of rats tested) ([2]; 20 mg/kg, @ 4 hrs): 1/2 @ 4 hrs; Rat Activity (oral) (number of rats active/total number of rats tested) ([2]; 20 mg/kg, @ 6 hrs): 1/2 @ 6 hrs; Rat Activity (oral) (number of rats active/total number of rats tested) ([2]; 200 mg/kg, @ 1 hr): 3/8 @ 1 hr; Rat Activity (oral) (number of rats active/total number of rats tested) ([2]; 200 mg/kg, @ 2 hrs): 4/8 @ 2 hrs; Rat Activity (oral) (number of rats active/total number of rats tested) ([2]; 200 mg/kg, @ 4 hrs): 2/8 @ 4 hrs; Rat Activity (oral) (number of rats active/total number of rats tested) ([2]; 200 mg/kg, @ 6 hrs): 1/8 @ 6 hrs
15 | CC1(C)O[C@@H]2[C@@H](CO[C@@]3(COS(=O)(=O)[N-]C(=O)OCc4ccccc4)OC(C)(C)O[C@@H]23)O1.[Na+] [Compound 17, N-(benzyloxy-carbonyl)-2,3:4,5-bis-O-(1-methylethylidene)-β-D-fructopyranose sulfamate sodium salt] |  | 10.37 @ 4 hrs, m/k | 2/4 @ 0.5 hrs | 1/4 @ 1 hr | 4/4 @ 2 hrs | 4/4 @ 4 hrs |  |  | ED50 ([2]; @ 6 hrs): 3.26 @ 6 hrs m/k; Rat Activity (oral) (number of rats active/total number of rats tested) ([2]; 30 mg/kg, @ 0.25 hrs): 1/4 @ 0.25 hrs
